± gives the uncertainty stated by the source.
Assay: xn = mol fraction of the nth substance listed

CCCCCCCCCCCC[N+](C)(C)Cc1ccccc1.[Cl-] + CC(C)C[C@H](NC(=O)CN)C(=O)O + O
electrical conductivity [S/m], 101 kPa
Settings | 293.15 K | 298.15 K | 303.15 K | 308.15 K | 313.15 K
x2 = 0.0008999, x1 = 0.0002654 | 0.0792 ± 0.005 | 0.0889 ± 0.0055 | 0.0993 ± 0.0061 | 0.11 ± 0.0068 | 0.123 ± 0.0075
x2 = 0.0008999, x1 = 0.0002843 | 0.0824 ± 0.0052 | 0.0926 ± 0.0058 | 0.104 ± 0.0064 | 0.116 ± 0.0071 | 0.129 ± 0.0079
x2 = 0.0008999, x1 = 0.0003023 | 0.0854 ± 0.0054 | 0.096 ± 0.006 | 0.107 ± 0.0066 | 0.12 ± 0.0074 | 0.134 ± 0.0082
x2 = 0.0008999, x1 = 0.0003252 | 0.0892 ± 0.0056 | 0.101 ± 0.0063 | 0.113 ± 0.007 | 0.126 ± 0.0077 | 0.14 ± 0.0085
x2 = 0.0009, x1 = 0.0001699 | 0.0609 ± 0.0038 | 0.068 ± 0.0042 | 0.0754 ± 0.0047 | 0.0833 ± 0.0051 | 0.0918 ± 0.0056
x2 = 0.0009, x1 = 0.000197 | 0.0669 ± 0.0042 | 0.0747 ± 0.0047 | 0.083 ± 0.0051 | 0.0919 ± 0.0056 | 0.102 ± 0.0062
x2 = 0.0009, x1 = 0.000222 | 0.0716 ± 0.0045 | 0.0801 ± 0.005 | 0.0893 ± 0.0055 | 0.0991 ± 0.0061 | 0.11 ± 0.0067
x2 = 0.0009, x1 = 0.0002447 | 0.0757 ± 0.0048 | 0.0848 ± 0.0053 | 0.0946 ± 0.0059 | 0.105 ± 0.0065 | 0.117 ± 0.0072
x2 = 0.0009001, x1 = 5.034e-05 | 0.0218 ± 0.0014 | 0.0243 ± 0.0015 | 0.0272 ± 0.0017 | 0.0302 ± 0.0019 | 0.0333 ± 0.0021
x2 = 0.0009001, x1 = 7.251e-05 | 0.03 ± 0.0019 | 0.0335 ± 0.0021 | 0.0373 ± 0.0023 | 0.0412 ± 0.0025 | 0.0454 ± 0.0028
x2 = 0.0009001, x1 = 9.522e-05 | 0.038 ± 0.0024 | 0.0425 ± 0.0026 | 0.0473 ± 0.0029 | 0.0521 ± 0.0032 | 0.0573 ± 0.0036
x2 = 0.0009001, x1 = 0.0001178 | 0.0458 ± 0.0029 | 0.0511 ± 0.0032 | 0.0567 ± 0.0035 | 0.0625 ± 0.0039 | 0.0687 ± 0.0042
x2 = 0.0009001, x1 = 0.0001434 | 0.0539 ± 0.0034 | 0.0601 ± 0.0037 | 0.0666 ± 0.0041 | 0.0734 ± 0.0045 | 0.0808 ± 0.005
x2 = 0.001793, x1 = 4.141e-05 | 0.0191 ± 0.0012 | 0.0215 ± 0.0013 | 0.0243 ± 0.0015 | 0.0271 ± 0.0017 | 0.0301 ± 0.0019
x2 = 0.001793, x1 = 6.45e-05 | 0.0271 ± 0.0017 | 0.0306 ± 0.0019 | 0.0342 ± 0.0021 | 0.038 ± 0.0024 | 0.0421 ± 0.0026
x2 = 0.001793, x1 = 8.905e-05 | 0.0354 ± 0.0022 | 0.0397 ± 0.0025 | 0.0444 ± 0.0028 | 0.0491 ± 0.0031 | 0.0542 ± 0.0034
x2 = 0.001793, x1 = 0.0001112 | 0.0424 ± 0.0026 | 0.0477 ± 0.003 | 0.0531 ± 0.0033 | 0.0587 ± 0.0037 | 0.0648 ± 0.0041
x2 = 0.001793, x1 = 0.0001367 | 0.05 ± 0.0031 | 0.056 ± 0.0035 | 0.0624 ± 0.0039 | 0.069 ± 0.0043 | 0.0761 ± 0.0048
x2 = 0.001793, x1 = 0.0001631 | 0.0569 ± 0.0035 | 0.0637 ± 0.0039 | 0.0707 ± 0.0044 | 0.0787 ± 0.0049 | 0.0879 ± 0.0054
x2 = 0.001793, x1 = 0.0001904 | 0.0632 ± 0.004 | 0.0708 ± 0.0044 | 0.0791 ± 0.0049 | 0.0877 ± 0.0054 | 0.0969 ± 0.006
x2 = 0.001793, x1 = 0.0002156 | 0.0683 ± 0.0043 | 0.0767 ± 0.0047 | 0.0859 ± 0.0053 | 0.0955 ± 0.0059 | 0.106 ± 0.0065
x2 = 0.001793, x1 = 0.0002389 | 0.0727 ± 0.0046 | 0.0819 ± 0.0051 | 0.0918 ± 0.0056 | 0.102 ± 0.0063 | 0.114 ± 0.007
x2 = 0.001793, x1 = 0.00026 | 0.0766 ± 0.0048 | 0.0863 ± 0.0053 | 0.0969 ± 0.006 | 0.108 ± 0.0067 | 0.121 ± 0.0074
x2 = 0.001793, x1 = 0.0002803 | 0.0802 ± 0.005 | 0.0905 ± 0.0056 | 0.102 ± 0.0063 | 0.114 ± 0.007 | 0.127 ± 0.0078
x2 = 0.001793, x1 = 0.0003015 | 0.0838 ± 0.0053 | 0.0947 ± 0.0059 | 0.107 ± 0.0066 | 0.12 ± 0.0073 | 0.133 ± 0.0082
x2 = 0.001793, x1 = 0.0003211 | 0.0872 ± 0.0055 | 0.0986 ± 0.0061 | 0.112 ± 0.0069 | 0.125 ± 0.0077 | 0.139 ± 0.0086

CCCC[N+](CCCC)(CCCC)CCCC.[Cl-] + CC(C)[C@H](N)C(=O)O
100 kPa
Settings | electrical conductivity, 313.15 K [S/m] | electrical conductivity, 323.15 K [S/m] | electrical conductivity, 333.15 K [S/m] | electrical conductivity, 343.15 K [S/m] | electrical conductivity, 353.15 K [S/m] | viscosity, 313.15 K [mPa·s] | viscosity, 323.15 K [mPa·s] | viscosity, 333.15 K [mPa·s] | viscosity, 343.15 K [mPa·s] | viscosity, 353.15 K [mPa·s]
x1 = 0.9 | 0.041 | 0.059 | 0.082 | 0.0989 | 0.123 | 800 ± 85 | 460 ± 48 | 258 ± 27 | 145 ± 15 | 82 ± 8
x1 = 0.9091 | 0.029 | 0.041 | 0.055 | 0.0751 | 0.095 | 900 ± 96 | 510 ± 54 | 256 ± 26 | 146 ± 15 | 82 ± 8
x1 = 0.9167 | 0.038 | 0.05 | 0.07 | 0.0901 | 0.116 | 587 ± 62 | 313 ± 32 | 196 ± 20 | 105 ± 11 | 63 ± 6

CCCCCCCCCCCC[N+](C)(C)Cc1ccccc1.[Cl-] + CC(C)[C@H](N)C(=O)O + O
electrical conductivity [S/m], 101 kPa
Settings | 293.15 K | 298.15 K | 303.15 K | 308.15 K | 313.15 K
x2 = 0.0008891, x1 = 0.0003 | 0.0839 ± 0.0053 | 0.0943 ± 0.0059 | 0.106 ± 0.0066 | 0.118 ± 0.0073 | 0.132 ± 0.0081
x2 = 0.0008891, x1 = 0.000319 | 0.087 ± 0.0055 | 0.0977 ± 0.0061 | 0.11 ± 0.0068 | 0.123 ± 0.0076 | 0.137 ± 0.0084
x2 = 0.0008892, x1 = 0.0001722 | 0.0627 ± 0.004 | 0.0699 ± 0.0044 | 0.0776 ± 0.0048 | 0.0856 ± 0.0053 | 0.0943 ± 0.0058
x2 = 0.0008892, x1 = 0.0001982 | 0.0677 ± 0.0043 | 0.0756 ± 0.0047 | 0.0841 ± 0.0052 | 0.0932 ± 0.0057 | 0.103 ± 0.0063
x2 = 0.0008892, x1 = 0.000222 | 0.0717 ± 0.0045 | 0.0802 ± 0.005 | 0.0894 ± 0.0055 | 0.0993 ± 0.0061 | 0.11 ± 0.0067
x2 = 0.0008892, x1 = 0.0002429 | 0.0751 ± 0.0047 | 0.0841 ± 0.0053 | 0.0939 ± 0.0058 | 0.104 ± 0.0064 | 0.116 ± 0.0071
x2 = 0.0008892, x1 = 0.0002636 | 0.0783 ± 0.0048 | 0.0878 ± 0.0054 | 0.0982 ± 0.006 | 0.109 ± 0.0067 | 0.122 ± 0.0074
x2 = 0.0008892, x1 = 0.0002822 | 0.0812 ± 0.0051 | 0.0912 ± 0.0057 | 0.102 ± 0.0063 | 0.114 ± 0.007 | 0.127 ± 0.0078
x2 = 0.0008893, x1 = 7.858e-05 | 0.0307 ± 0.0019 | 0.0345 ± 0.0022 | 0.0383 ± 0.0024 | 0.0422 ± 0.0026 | 0.046 ± 0.0029
x2 = 0.0008893, x1 = 9.958e-05 | 0.0385 ± 0.0024 | 0.0432 ± 0.0027 | 0.0479 ± 0.003 | 0.0528 ± 0.0033 | 0.0577 ± 0.0036
x2 = 0.0008893, x1 = 0.0001218 | 0.0467 ± 0.0029 | 0.0524 ± 0.0033 | 0.058 ± 0.0036 | 0.064 ± 0.004 | 0.0701 ± 0.0044
x2 = 0.0008893, x1 = 0.0001461 | 0.0553 ± 0.0035 | 0.0619 ± 0.0039 | 0.0686 ± 0.0043 | 0.0756 ± 0.0047 | 0.0827 ± 0.0051
x2 = 0.0008894, x1 = 5.704e-05 | 0.0227 ± 0.0014 | 0.0255 ± 0.0016 | 0.0283 ± 0.0018 | 0.0312 ± 0.002 | 0.034 ± 0.0021
x2 = 0.001757, x1 = 5.785e-05 | 0.0228 ± 0.0014 | 0.0256 ± 0.0016 | 0.0285 ± 0.0018 | 0.0315 ± 0.002 | 0.0345 ± 0.0022
x2 = 0.001757, x1 = 7.859e-05 | 0.0304 ± 0.0019 | 0.0341 ± 0.0021 | 0.0379 ± 0.0024 | 0.0418 ± 0.0027 | 0.0458 ± 0.0029
x2 = 0.001757, x1 = 0.0001001 | 0.0382 ± 0.0024 | 0.0428 ± 0.0027 | 0.0475 ± 0.003 | 0.0528 ± 0.0033 | 0.0574 ± 0.0036
x2 = 0.001757, x1 = 0.000121 | 0.0457 ± 0.0029 | 0.0512 ± 0.0032 | 0.0568 ± 0.0036 | 0.0628 ± 0.004 | 0.0689 ± 0.0044
x2 = 0.001757, x1 = 0.0001443 | 0.0537 ± 0.0034 | 0.0601 ± 0.0037 | 0.0666 ± 0.0041 | 0.0735 ± 0.0046 | 0.0809 ± 0.0051
x2 = 0.001757, x1 = 0.0001688 | 0.0607 ± 0.0038 | 0.0676 ± 0.0042 | 0.075 ± 0.0046 | 0.0828 ± 0.0051 | 0.0914 ± 0.0056
x2 = 0.001757, x1 = 0.0001945 | 0.0657 ± 0.0042 | 0.0733 ± 0.0046 | 0.0815 ± 0.005 | 0.0905 ± 0.0055 | 0.1 ± 0.0061
x2 = 0.001757, x1 = 0.0002205 | 0.07 ± 0.0045 | 0.0783 ± 0.0049 | 0.0872 ± 0.0054 | 0.0971 ± 0.0059 | 0.108 ± 0.0066
x2 = 0.001757, x1 = 0.0002437 | 0.0737 ± 0.0047 | 0.0826 ± 0.0052 | 0.0919 ± 0.0057 | 0.103 ± 0.0063 | 0.114 ± 0.007
x2 = 0.001757, x1 = 0.0002647 | 0.0773 ± 0.0047 | 0.0864 ± 0.0053 | 0.0965 ± 0.0059 | 0.108 ± 0.0066 | 0.12 ± 0.0074
x2 = 0.001757, x1 = 0.0002841 | 0.0803 ± 0.0051 | 0.09 ± 0.0056 | 0.101 ± 0.0062 | 0.112 ± 0.0069 | 0.126 ± 0.0077
x2 = 0.001757, x1 = 0.0003021 | 0.0834 ± 0.0053 | 0.0937 ± 0.0058 | 0.105 ± 0.0065 | 0.117 ± 0.0072 | 0.13 ± 0.008
x2 = 0.001757, x1 = 0.0003234 | 0.0872 ± 0.0055 | 0.0978 ± 0.0061 | 0.11 ± 0.0068 | 0.122 ± 0.0075 | 0.136 ± 0.0083

— the CheMixHub ionic liquid set
